Test results from publication PMC6576746, “Rational discovery of dual-indication multi-target PDE/Kinase inhibitor for precision anti-cancer therapy using structural systems pharmacology” (PLoS Computational Biology, 2019).
pEC50, pIC50: −log10 of the molar value.

Tests used:
Assay in all cases: cells
Parameters in all cases: species or system panel of human cancer cell lines; Eurofins OncoPanel proliferation; nuclei count by high-content fluorescence imaging, 10-point dose response
A-673 = details: Homo sapiens, A673, 72 h, cell count, 3 days
Method: (§1) OncoPanel cancer cell proliferation assay was performed by Eurofins Panlabs, Inc. (Missouri, USA). Cancer cells were grown in RPMI 1640, 10% FBS, 2 mM L-alanyl-L-glutamine, 1 mM Na pyruvate, or a special medium. Cells were seeded into 384-well plates and incubated in a humidified atmosphere of 5% CO2 at 37°C. Compounds were added the day following cell seeding. At the same time, a time zero untreated cell plate was generated. After a 3-day incubation period, cells were fixed and stained to allow fluorescence imaging of nuclei. Levosimendan was serially diluted in half-log steps from 100 μM and assayed over 10 concentrations with a maximum assay concentration of 0.1% DMSO. Automated fluorescence microscopy was carried out using a Molecular Devices ImageXpress Micro XL high-content imager, and images were collected with a 4X objective. 16-bit TIFF images were acquired and analyzed with MetaXpress 5.1.0.41 software. Cell count EC50 is the test concentration at the curve inflection point (parameter C), or half the effective response. IC50 is the test compound concentration at 50% of the maximum possible response. GI50 is the concentration needed to reduce the observed growth by half (midway between the relative cell count at the curve maximum and at the time of compound addition). Activity area is an estimate of the integrated area above the response curve. Activity area values range from 0–10, where a value of zero indicates no inhibition of proliferation at all concentrations, and a value of 10 indicates complete inhibition of proliferation at all concentrations.

NCI-H508 = details: Homo sapiens, NCI-H508, 72 h, cell count, 3 days
Method: as §1

Hs 934.T = details: 72 h, cell count, 3 days
Method: as §1

NCI-H292 = details: Homo sapiens, NCI-H292, 72 h, cell count, 3 days
Method: as §1

MV-4-11 = details: Homo sapiens, MV4-11, 72 h, cell count, 3 days
Method: as §1

PFSK-1 = details: Homo sapiens, PFSK-1, 72 h, cell count, 3 days
Method: as §1

RPMI 8226 = details: Homo sapiens, RPMI-8226, 72 h, cell count, 3 days
Method: as §1

5637 = details: 72 h, cell count, 3 days
Method: as §1

DoTc2 4510 = details: Homo sapiens, DoTc2-4510, 72 h, cell count, 3 days
Method: as §1

SCaBER = details: Homo sapiens, SCaBER, 72 h, cell count, 3 days
Method: as §1

NCI-H520 = details: Homo sapiens, NCI-H520, 72 h, cell count, 3 days
Method: as §1

TF-1 = details: Homo sapiens, TF-1, 72 h, cell count, 3 days
Method: as §1

BeWo = details: Homo sapiens, BeWo, 72 h, cell count, 3 days
Method: as §1

A101D = details: Homo sapiens, A101D, 72 h, cell count, 3 days
Method: as §1

[1] = 50% of maximum possible response

C[C@@H]1CC(=O)NN=C1c1ccc(NN=C(C#N)C#N)cc1 [levosimendan]
pIC50 (A-673; [1]): 4.24
GI50 (A-673; corrected for time zero): 44 µM
pEC50 (A-673; curve inflection point): 4.24
pIC50 (NCI-H508; [1]): 4.42
GI50 (NCI-H508; corrected for time zero): 33.5 µM
pEC50 (NCI-H508; curve inflection point): 4.42
pIC50 (Hs 934.T; [1]): < 4.00
GI50 (Hs 934.T; corrected for time zero): > 100 µM
pEC50 (Hs 934.T; curve inflection point): < 4.00
pIC50 (NCI-H292; [1]): 4.39
GI50 (NCI-H292; corrected for time zero): 34.4 µM
pEC50 (NCI-H292; curve inflection point): 4.39
pIC50 (MV-4-11; [1]): 4.88
GI50 (MV-4-11; corrected for time zero): 9.2 µM
pEC50 (MV-4-11; curve inflection point): 4.90
pIC50 (PFSK-1; [1]): 4.71
GI50 (PFSK-1; corrected for time zero): 13.9 µM
pEC50 (PFSK-1; curve inflection point): 4.71
pIC50 (RPMI 8226; [1]): 4.60
GI50 (RPMI 8226; corrected for time zero): 17.1 µM
pEC50 (RPMI 8226; curve inflection point): 4.60
pIC50 5637; [1]: 4.19
GI50 (5637; corrected for time zero): 53.5 µM
pEC50 (5637; curve inflection point): 4.19
pIC50 (DoTc2 4510; [1]): 4.84
GI50 (DoTc2 4510; corrected for time zero): 11.4 µM
pEC50 (DoTc2 4510; curve inflection point): 4.97
pIC50 (SCaBER; [1]): 4.22
GI50 (SCaBER; corrected for time zero): 56.5 µM
pEC50 (SCaBER; curve inflection point): 4.22
pIC50 (NCI-H520; [1]): < 4.00
GI50 (NCI-H520; corrected for time zero): > 100 µM
pEC50 (NCI-H520; curve inflection point): < 4.00
pIC50 (TF-1; [1]): 4.38
GI50 (TF-1; corrected for time zero): 19.7 µM
pEC50 (TF-1; curve inflection point): 4.38
pIC50 (BeWo; [1]): 4.43
GI50 (BeWo; corrected for time zero): 33.9 µM
pEC50 (BeWo; curve inflection point): 4.43
pIC50 (A101D; [1]): 4.46
GI50 (A101D; corrected for time zero): 26.6 µM
pEC50 (A101D; curve inflection point): 4.46
